Results as given in ChEMBL document CHEMBL1201862, “PubChem BioAssay data set” (2004).
Active and inactive are the calls of the source.

Legend:
[1] = molecular target: COUP transcription factor 2 (Homo sapiens, UniProt P24468); assay: Luminescence-based cell-based high throughput dose response assay to identify inhibitors of COUP-TFII (NR2F2).; assay type: functional;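 also: HEK293 cells transiently cotransfected with COUP-TFII expression vector and reporter; luciferase reporter luminescence driven by COUP-TFII from the pX2-168 reporter plasmid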
COUP transcription factor 2, sequence (P24468 whole entry): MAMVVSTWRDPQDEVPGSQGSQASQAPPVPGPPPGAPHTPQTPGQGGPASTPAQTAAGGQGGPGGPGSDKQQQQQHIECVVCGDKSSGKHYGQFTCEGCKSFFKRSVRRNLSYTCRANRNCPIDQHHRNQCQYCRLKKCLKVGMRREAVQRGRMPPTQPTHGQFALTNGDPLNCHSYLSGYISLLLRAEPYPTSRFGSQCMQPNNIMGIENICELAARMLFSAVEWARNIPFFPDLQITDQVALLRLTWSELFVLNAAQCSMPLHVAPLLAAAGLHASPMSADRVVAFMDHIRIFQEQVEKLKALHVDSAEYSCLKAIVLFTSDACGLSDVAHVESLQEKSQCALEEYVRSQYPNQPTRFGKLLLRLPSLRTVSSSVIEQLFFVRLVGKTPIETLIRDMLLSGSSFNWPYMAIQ

[2] = cytotoxicity in HEK-293T NF-kB-Luc cells, dose response, cytotoxicity control for B/T-cell NF-kB inhibitor project, cell-based, uHTS hits (AID 489019); assay type: functional;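 also: IC50 reflects cytotoxicity as loss of cell viability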
[3] = reduction of Shn3 3'UTR firefly luciferase signal, dose response, Schnurri-3 inhibitor project, cell-based, Clone20 osteoblasts, cherry-pick, set 2 (AID 720490); assay type: functional;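 also: actives lower the luminescence signal as inhibitors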
[4] = Shn3 3'UTR reporter inhibitors, dose response, cell-based, Clone20 osteoblasts, firefly luciferase, cherry-picked (AID 624132); assay type: functional;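 also: firefly luciferase luminescence from reporter carrying the Shn3 3'UTR in osteoblasts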
[5] = control 3'UTR Renilla luciferase suppression, dose response, counter-screen for Shn3 inhibitor project, cell-based, Clone20-Shn3RL, cherry-picked (AID 624133); assay type: functional
[6] = cytotoxicity in MIN6 insulinoma cells, dose response, cytotoxicity control, cell-based, mouse insulinoma (AID 2122); assay type: functional;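 also: confirmatory high-throughput counterscreen run to flag cytotoxic compounds; mouse MIN-6 beta cells carrying an insulin promoter eGFP reporter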
[7] = insulin promoter down-regulators in MIN6 cells, imaging, high-content screening, mouse beta cells (AID 1628); assay type: functional
Jurkat = assay: antigen receptor-induced NF-kB inhibitors, dose response, Jurkat, luciferase reporter, luminescence, B- and T-cell (AID 489004); assay type: functional, cell-based; settings: Homo sapiens;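 also: NF-kB luciferase reporter Jurkat cells stimulated with PMA plus ionomycin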
INS1 = assay: beta cell apoptosis inhibitors, cytokine rescue, dose response, luminescence, retest (AID 449756); assay type: functional, cell-based; settings: Rattus norvegicus;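 also: cell death triggered by IL-1 beta plus TNF-alpha plus IFN-gamma mixture; protective hits raise ATP signal compared with cytokine alone wells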
[8] = HepG2 cell cytotoxicity, dose response, cytotoxicity control for Shn3 inhibitor project, CellTiter-Glo, cherry-picked (AID 624134); assay type: functional, cell-based
[9] = molecular target: T1, Serine/threonine-protein phosphatase (Candida dubliniensis (strain CD36 / CBS 7987 / NCPF 3949 / NRRLY-17841) (Yeast), UniProt B9W6M3); assay: calcineurin pathway inhibitors in yeast reporter, dose response, S. cerevisiae, CDRE-lacZ, luminescence, secondary (AID 2388); assay type: functional, cell-based;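 also: yeast reporter cells carrying a calcineurin-responsive lacZ construct stimulated with calcium chloride; luminescent beta-galactosidase reporter signal in whole cells rather than isolated phosphatase activity; potency for inhibition where a drop in reporter signal means calcineurin blockade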
T1 sequence (B9W6M3 whole entry): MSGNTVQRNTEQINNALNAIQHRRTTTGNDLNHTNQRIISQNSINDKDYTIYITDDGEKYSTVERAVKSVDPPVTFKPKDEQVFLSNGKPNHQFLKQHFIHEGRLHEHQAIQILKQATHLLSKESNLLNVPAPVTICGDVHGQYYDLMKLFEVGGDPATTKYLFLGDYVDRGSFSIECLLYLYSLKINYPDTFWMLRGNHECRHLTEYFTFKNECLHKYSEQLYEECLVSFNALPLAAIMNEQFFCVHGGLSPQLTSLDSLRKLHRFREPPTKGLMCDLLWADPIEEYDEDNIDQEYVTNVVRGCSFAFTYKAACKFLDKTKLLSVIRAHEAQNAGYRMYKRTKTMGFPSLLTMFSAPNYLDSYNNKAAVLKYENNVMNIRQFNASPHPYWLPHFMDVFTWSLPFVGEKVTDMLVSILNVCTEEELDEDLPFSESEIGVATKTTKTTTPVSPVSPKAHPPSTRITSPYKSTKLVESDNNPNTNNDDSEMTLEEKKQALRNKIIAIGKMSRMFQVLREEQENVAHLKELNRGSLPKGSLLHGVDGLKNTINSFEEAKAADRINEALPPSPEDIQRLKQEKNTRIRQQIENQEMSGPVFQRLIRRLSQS

[10] = molecular target: T1, Serine/threonine-protein phosphatase; assay: Fluorescence Cell-Based Secondary Assay to Identify Inhibitors of Calcineurin. [Related pubchem assays (depositor defined):AID1979, AID2007]; assay type: functional
[11] = NIH-3T3 fibroblast cytotoxicity, dose response, cytotoxicity control, cell-based, fluorescence, Alamar Blue, secondary assay (AID 2327); assay type: functional;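 also: NIH-3T3 mouse fibroblasts cultured with fluconazole at 8 µg/mL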
[12] = molecular target: ATP-dependent molecular chaperone HSP82 (Candida albicans (strain WO-1) (Yeast), UniProt C4YTQ8); assay: loss of DOC-induced GRE-beta-galactosidase reporter signal, dose response, Hsp90 inhibitor project, S. cerevisiae, luminescence (AID 2400); assay type: functional, cell-based;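 also: beta-galactosidase luminescence from glucocorticoid response element reporter as proxy for Hsp90 function; inhibitor potency where signal loss means Hsp90 inhibition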
ATP-dependent molecular chaperone HSP82, sequence (C4YTQ8 whole entry): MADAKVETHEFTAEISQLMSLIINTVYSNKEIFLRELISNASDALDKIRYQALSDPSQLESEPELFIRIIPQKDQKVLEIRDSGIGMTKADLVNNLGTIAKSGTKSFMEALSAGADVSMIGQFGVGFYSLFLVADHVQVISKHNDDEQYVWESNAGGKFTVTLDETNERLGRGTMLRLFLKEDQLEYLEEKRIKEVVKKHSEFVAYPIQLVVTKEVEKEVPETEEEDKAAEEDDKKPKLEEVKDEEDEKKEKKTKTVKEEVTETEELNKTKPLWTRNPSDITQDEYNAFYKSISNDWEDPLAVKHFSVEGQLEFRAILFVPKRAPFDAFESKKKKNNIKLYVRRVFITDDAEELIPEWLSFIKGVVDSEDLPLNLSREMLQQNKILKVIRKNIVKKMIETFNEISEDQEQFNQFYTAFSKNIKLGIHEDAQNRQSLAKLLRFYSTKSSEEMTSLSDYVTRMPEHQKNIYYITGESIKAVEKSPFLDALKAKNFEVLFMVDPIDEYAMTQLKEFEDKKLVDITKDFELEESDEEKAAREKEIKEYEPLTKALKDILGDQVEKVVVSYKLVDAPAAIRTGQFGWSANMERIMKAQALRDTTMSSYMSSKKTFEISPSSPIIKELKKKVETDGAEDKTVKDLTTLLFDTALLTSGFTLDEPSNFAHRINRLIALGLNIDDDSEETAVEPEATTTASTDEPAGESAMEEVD

[13] = C. albicans growth with fluconazole, confirmation, fluorescence, retest (AID 2467); assay type: functional, cell-based

| SMILES | IC50 [1] | IC50 [2] | AC50 [3] | AC50 [4] | AC50 [5] | IC50 [6] | IC50 [7] | IC50 (Jurkat) | AC50 (INS1) | AC50 [8] | EC50 [9] | EC50 [10] | EC50 [11] | EC50 [12] | EC50 [13] |
| --- | --- | --- | --- | --- | --- | --- | --- | --- | --- | --- | --- | --- | --- | --- | --- |
| Cn1nc(CC(=O)Nc2ccc3c(c2)OCCO3)c2ccccc2c1=O | 6.56 µM (active) | > 80 µM (inactive) | 1.36 µM (active) | 0.899 µM (active) | 3.62 µM (active) | 0.552 µM (active) | 0.797 µM (active) | > 80 µM (inactive) | 2.77 µM (active) | 55.8 µM (active) | – | – | – | – | – |
| COc1ccc(-n2nc(C(=O)NCC(=O)N3CCN(c4ccccc4)CC3)c3ccccc3c2=O)c(OC)c1 | – | – | – | – | – | – | – | – | – | – | > 180 µM (inactive) | > 285 µM (inactive) | > 160 µM (inactive) | > 160 µM (inactive) | 0.819 µM (active) |
